Source: PubChem BioAssay (NCI)
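Five compound concentrations were applied to cells in 96-well plates for 48 hours; endpoints were derived by simple linear interpolation of the resulting dose-response curve. The concentration for 50% growth inhibition is given as GI50. At the TGI there is no net growth.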

Columns and labels:
Experiment in all cases: inhibition of tumour cell growth, NCI panel, 48 h
[1] = test system: IGROV1 ovarian
[2] = test system: SF-268 CNS
[3] = test system: HOP-92 NSCLC
[4] = test system: RPMI-8226 leukemia
[5] = test system: PC-3 prostate
[6] = test system: ACHN renal
[7] = test system: HCT-116 colon
[8] = test system: T-47D breast
[9] = test system: SW-620 colon
[10] = test system: COLO 205 colon
[11] = test system: SNB-19 CNS
[12] = test system: SK-MEL-5 melanoma
[13] = test system: DU-145 prostate
[14] = test system: A498 renal
[15] = test system: M14 melanoma
[16] = test system: NCI-H522 lung
[17] = test system: HCC-2998 colon
[18] = test system: SK-MEL-28 melanoma
[19] = test system: RXF 393 renal
[20] = test system: MALME-3M melanoma
[21] = test system: SN12C renal
[22] = test system: OVCAR-4 ovarian
[23] = test system: MDA-MB-468 breast
[24] = test system: UACC-62 melanoma
[25] = test system: UO-31 renal
[26] = test system: SK-MEL-2 melanoma
[27] = test system: HOP-62 NSCLC
[28] = test system: HL-60(TB) leukemia
[29] = test system: MCF7 breast
[30] = test system: U251 CNS
[31] = test system: UACC-257 melanoma
[32] = test system: TK-10 renal
[33] = test system: HS 578T breast
[34] = test system: SF-539 CNS
[35] = test system: LOX IMVI melanoma
[36] = test system: 786-0 renal
[37] = test system: NCI-H226 lung
[38] = test system: EKVX NSCLC
[39] = test system: SK-OV-3 ovarian
[40] = test system: NCI-H460 lung
[41] = test system: K-562 leukemia
[42] = test system: SF-295 CNS
[43] = test system: CAKI-1 renal
[44] = test system: MDA-MB-435
[45] = test system: SR leukemia
[46] = test system: MOLT-4 leukemia
[47] = test system: HT29 colon
[48] = test system: NCI-H23 lung
[49] = test system: KM12 colon
[50] = test system: BT-549 breast
[51] = test system: OVCAR-5 ovarian
[52] = test system: CCRF-CEM leukemia
[53] = test system: SNB-75 CNS
[54] = test system: OVCAR-3 ovarian
[55] = test system: A549 NSCLC
[56] = test system: HCT-15 colon
[57] = test system: MDA-MB-231 breast
[58] = test system: OVCAR-8 ovarian
[59] = test system: NCI/ADR-RES ovarian

CN(C(=O)c1ccc(C(F)(F)F)cc1C(F)(F)F)c1sc2c(c1C#N)CCC(=O)C2
GI50 [1]: 11.3 µM | TGI [1]: 25.7 µM | GI50 [2]: 12.1 µM | TGI [2]: 32.8 µM | GI50 [3]: 5.35 µM | TGI [3]: 19.3 µM | GI50 [4]: 2.82 µM | TGI [4]: 13.3 µM | GI50 [5]: 2.69 µM | TGI [5]: 6.93 µM | GI50 [6]: 14.2 µM | TGI [6]: 29.6 µM | GI50 [7]: 3.65 µM | TGI [7]: 14.4 µM | GI50 [8]: 4.43 µM | TGI [8]: 30.4 µM | GI50 [9]: 3.22 µM | TGI [9]: 12.3 µM | GI50 [10]: 16 µM | TGI [10]: 30.5 µM | GI50 [11]: 12.4 µM | TGI [11]: 26.8 µM | GI50 [12]: 8.15 µM | TGI [12]: 21.1 µM | GI50 [13]: 17.3 µM | TGI [13]: 31.3 µM | GI50 [14]: 16.9 µM | TGI [14]: 30.9 µM | GI50 [15]: 4.18 µM | TGI [15]: 19.2 µM | GI50 [16]: 1.62 µM | TGI [16]: 3.38 µM | GI50 [17]: 15.1 µM | TGI [17]: 29.5 µM | GI50 [18]: 21.4 µM | TGI [18]: 43.8 µM | GI50 [19]: 2.74 µM | TGI [19]: 10.1 µM | GI50 [20]: 18.1 µM | TGI [20]: 36.1 µM | GI50 [21]: 10.5 µM | TGI [21]: 29.6 µM | GI50 [22]: 3 µM | TGI [22]: 10.3 µM | GI50 [23]: 2.35 µM | TGI [23]: 6.93 µM | GI50 [24]: 4.48 µM | TGI [24]: 17 µM | GI50 [25]: 3.15 µM | TGI [25]: 13.7 µM | GI50 [26]: 14.3 µM | TGI [26]: 31 µM | GI50 [27]: 16.1 µM | TGI [27]: 30.3 µM | GI50 [28]: 3.33 µM | TGI [28]: 25.6 µM | GI50 [29]: 14.6 µM | TGI [29]: 31 µM | GI50 [30]: 1.98 µM | TGI [30]: 4.68 µM | GI50 [31]: 16.3 µM | TGI [31]: 32.8 µM | GI50 [32]: 14.6 µM | TGI [32]: 28 µM | GI50 [33]: 3.92 µM | TGI [33]: 28.7 µM | GI50 [34]: 2.34 µM | TGI [34]: 5.04 µM | GI50 [35]: 4.09 µM | TGI [35]: 15.5 µM | GI50 [36]: 15.7 µM | TGI [36]: 34.7 µM | GI50 [37]: 16.7 µM | TGI [37]: 40.9 µM | GI50 [38]: 14.2 µM | TGI [38]: 30.8 µM | GI50 [39]: 15.3 µM | TGI [39]: 28.9 µM | GI50 [40]: 17.2 µM | TGI [40]: 33.2 µM | GI50 [41]: 2.7 µM | TGI [41]: > 100 µM | GI50 [42]: 12.3 µM | TGI [42]: 25.6 µM | GI50 [43]: 7.01 µM | TGI [43]: 21.1 µM | GI50 [44]: 15.7 µM | TGI [44]: 30.5 µM | GI50 [45]: 2.64 µM | TGI [45]: 11 µM | GI50 [46]: 4.13 µM | TGI [46]: 27.8 µM | GI50 [47]: 17.6 µM | TGI [47]: 34.4 µM | GI50 [48]: 6.94 µM | TGI [48]: 22.8 µM | GI50 [49]: 4.25 µM | TGI [49]: 17.5 µM | GI50 [50]: 2.82 µM | TGI [50]: 8.29 µM | GI50 [51]: 21.3 µM | TGI [51]: 39.6 µM | GI50 [52]: 2.73 µM | TGI [52]: 14.6 µM | GI50 [53]: 5.25 µM | TGI [53]: 20.7 µM | GI50 [54]: 2.4 µM | TGI [54]: 6.1 µM | GI50 [55]: 18.1 µM | TGI [55]: 41.8 µM | GI50 [56]: 3.09 µM | TGI [56]: 11.6 µM | GI50 [57]: 13.1 µM | TGI [57]: 35 µM | GI50 [58]: 4.66 µM | TGI [58]: 19 µM

Cn1cc(-c2cc3nc(-c4cn(C)c5ncccc45)cc(N)n3n2)c2cc(Cl)ccc21
GI50 [1]: 1.87 µM | TGI [1]: 3.49 µM | GI50 [2]: 2.13 µM | TGI [2]: 4.83 µM | GI50 [3]: 2.16 µM | TGI [3]: 4.14 µM | GI50 [4]: 2.4 µM | TGI [4]: 6.4 µM | GI50 [59]: 2.25 µM | TGI [59]: 5.3 µM | GI50 [5]: 2.21 µM | TGI [5]: 7.6 µM | GI50 [6]: 1.86 µM | TGI [6]: 3.53 µM | GI50 [7]: 1.62 µM | TGI [7]: 2.98 µM | GI50 [8]: 1.8 µM | TGI [8]: 4.04 µM | GI50 [9]: 1.8 µM | TGI [9]: 3.53 µM | GI50 [10]: 1.77 µM | TGI [10]: 3.24 µM | GI50 [11]: 3.23 µM | TGI [11]: 9.76 µM | GI50 [12]: 1.59 µM | TGI [12]: 2.96 µM | GI50 [13]: 2.54 µM | TGI [13]: 7.06 µM | GI50 [14]: 1.9 µM | TGI [14]: 5.37 µM | GI50 [15]: 1.67 µM | TGI [15]: 3.14 µM | GI50 [16]: 1.77 µM | TGI [16]: 3.33 µM | GI50 [17]: 1.71 µM | TGI [17]: 3.12 µM | GI50 [18]: 1.65 µM | TGI [18]: 3.04 µM | GI50 [19]: 1.53 µM | TGI [19]: 2.97 µM | GI50 [20]: 1.71 µM | TGI [20]: 3.15 µM | GI50 [21]: 1.63 µM | TGI [21]: 3.09 µM | GI50 [22]: 2.03 µM | TGI [22]: 4.74 µM | GI50 [23]: 1.5 µM | TGI [23]: 2.86 µM | GI50 [24]: 1.6 µM | TGI [24]: 3.04 µM | GI50 [25]: 1.62 µM | TGI [25]: 3.31 µM | GI50 [26]: 1.91 µM | TGI [26]: 3.69 µM | GI50 [27]: 1.96 µM | TGI [27]: 4.21 µM | GI50 [29]: 1.83 µM | TGI [29]: 4.31 µM | GI50 [30]: 2.18 µM | TGI [30]: 5.03 µM | GI50 [31]: 1.72 µM | TGI [31]: 3.34 µM | GI50 [32]: 1.91 µM | TGI [32]: 6.91 µM | GI50 [33]: 2.1 µM | TGI [33]: 5.25 µM | GI50 [34]: 1.73 µM | TGI [34]: 3.15 µM | GI50 [35]: 1.77 µM | TGI [35]: 3.16 µM | GI50 [36]: 1.65 µM | TGI [36]: 3.03 µM | GI50 [37]: 2.02 µM | TGI [37]: 4.64 µM | GI50 [38]: 1.68 µM | TGI [38]: 3.51 µM | GI50 [39]: 2.02 µM | TGI [39]: 4.08 µM | GI50 [40]: 1.88 µM | TGI [40]: 3.67 µM | GI50 [41]: 1.75 µM | TGI [41]: 4.41 µM | GI50 [42]: 1.77 µM | TGI [42]: 3.41 µM | GI50 [43]: 1.85 µM | TGI [43]: 4.38 µM | GI50 [44]: 1.71 µM | TGI [44]: 3.29 µM | GI50 [46]: 2.02 µM | TGI [46]: 5.11 µM | GI50 [47]: 1.98 µM | TGI [47]: 4.1 µM | GI50 [48]: 2.32 µM | TGI [48]: 6.47 µM | GI50 [49]: 2.14 µM | TGI [49]: 4.76 µM | GI50 [50]: 1.59 µM | TGI [50]: 3.09 µM | GI50 [51]: 1.85 µM | TGI [51]: 4.48 µM | GI50 [52]: 2.58 µM | TGI [52]: > 100 µM | GI50 [54]: 1.91 µM | TGI [54]: 3.59 µM | GI50 [55]: 2.87 µM | TGI [55]: 12 µM | GI50 [56]: 1.89 µM | TGI [56]: 4.36 µM | GI50 [57]: 1.76 µM | TGI [57]: 3.23 µM | GI50 [58]: 2.13 µM | TGI [58]: 4.82 µM
